Earlier results as cited in patent US20250375396A1 (priority 2016, published 2025).
Structures can show the parent of a compound that is named as a salt.

Details: for Equilibrium Constant of Acid Amine (pKa(acid amine)): conjugated acid amine

Row | Compound | Equilibrium Constant of Acid Amine (pKa(acid amine)) | pKa
1 | COC(=O)C(c1ccccc1)C1CCCCN1 (stereo not drawn) [Methyl phenidate HCl] | 8.77 | 
2 | CCN(C)C(=O)Oc1cccc([C@H](C)N(C)C)c1 [Rivastigmine HCl] | 8.85 | 
3 | CCCN(CCC)CCc1cccc2c1CC(=O)N2 [Ropinirole HCl] | 9.68 | 
4 | CCCN(CCc1cccs1)[C@H]1CCc2c(O)cccc2C1 [Rotigotine HCl] | 7.90 | 
5 | O=C([O-])[O-].[Na+].[Na+] [Sodium carbonate] |  | 10.3
6 | CCOc1ccccc1OCCN[C@H](C)Cc1ccc(OC)c(S(N)(=O)=O)c1 [Tamsulosin HCl] | 8.37 | 
